According to patent publication EP4721732A1, “PHARMACEUTICAL COMPOSITION CONTAINING CRISDESALAZINE WITH IMPROVED STABILITY AND DISSOLUTION RATE” (priority 2023, dated 2024):
In brackets after ≈: the same amount, converted by molar mass. Where two headings read alike, the source gives them in different places.

How the values were obtained:
[1] = Compatibility evaluation of crisdesalazine with excipients; format: physicochemical
Description: One embodiment of the present invention provides a pharmaceutical composition substantially free of lactose. The inventors conducted "compatibility" evaluation experiments between crisdesalazine and various excipients.
In other words, the long-term stability of crisdesalazine and lactose was difficult to predict based solely on short-term compatibility evaluation tests.
However, when compressed to a target hardness of 7-9 kPa, the target hardness was not achieved. The appearance of the tablet changed to a bluish gray color during the short period between mixing and compression.

[2] = pH-dependent equilibrium solubility; format: physicochemical; details: for Equilibrium Solubility: BLOD = below limit of detection; for solubility thermodynamic at 12 h / solubility thermodynamic at 24 h: purified water, thermodynamic from solid
Method: First, the inventors of the present invention measured the pH-dependent equilibrium solubility of crisdesalazine (2-hydroxy-5-[2-(4-trifluoromethylphenyl)ethylamino]benzoic acid), and the results of the solubility at 12 hours and 24 hours were as shown in Table 1 and Figure 1 below. […]

compatibility with lactose ([1]; 13-week compatibility study, only minor powder coagulation, minimal changes in impurities): judged to be compatible
compatibility with excipients ([1]; with calcium phosphate dibasic, hydroxypropyl methylcellulose (HPMC), meglumine, magnesium oxide (MgO)): poor compatibility
Equilibrium Solubility ([2]; pH 3, 12 hours): BLOD
Equilibrium Solubility ([2]; pH 3, 24 hours): BLOD
Equilibrium Solubility ([2]; pH 4, 12 hours): BLOD
solubility thermodynamic at 12 h ([2]; pH 1, simulated gastric fluid, pH 1, 12 hours, read-out: Equilibrium Solubility): 16.4 µg/mL (≈ 50.4 µM)
solubility thermodynamic at 24 h ([2]; pH 1, simulated gastric fluid, pH 1, 24 hours, read-out: Equilibrium Solubility): 15.7 µg/mL (≈ 48.3 µM)
solubility thermodynamic at 12 h ([2]; pH 2, simulated gastric fluid, pH 2, 12 hours, read-out: Equilibrium Solubility): 2.6 µg/mL (≈ 7.99 µM)
solubility thermodynamic at 24 h ([2]; pH 2, simulated gastric fluid, pH 2, 24 hours, read-out: Equilibrium Solubility): 1.7 µg/mL (≈ 5.23 µM)
solubility thermodynamic at 24 h ([2]; pH 4, aqueous buffer, pH 4, 24 hours, read-out: Equilibrium Solubility): 2.2 µg/mL (≈ 6.76 µM)
solubility thermodynamic at 12 h ([2]; pH 5, aqueous buffer, pH 5, 12 hours, read-out: Equilibrium Solubility): 0.7 µg/mL (≈ 2.15 µM)
solubility thermodynamic at 24 h ([2]; pH 5, aqueous buffer, pH 5, 24 hours, read-out: Equilibrium Solubility): 5.9 µg/mL (≈ 18.1 µM)
solubility thermodynamic at 12 h ([2]; pH 6, aqueous buffer, pH 6, 12 hours, read-out: Equilibrium Solubility): 6.4 µg/mL (≈ 19.7 µM)
solubility thermodynamic at 24 h ([2]; pH 6, aqueous buffer, pH 6, 24 hours, read-out: Equilibrium Solubility): 11.5 µg/mL (≈ 35.4 µM)
solubility thermodynamic at 12 h ([2]; pH 7, aqueous buffer, pH 7, 12 hours, read-out: Equilibrium Solubility): 38.2 µg/mL (≈ 117 µM)
solubility thermodynamic at 24 h ([2]; pH 7, aqueous buffer, pH 7, 24 hours, read-out: Equilibrium Solubility): 39.7 µg/mL (≈ 122 µM)
solubility thermodynamic at 12 h ([2]; pH 7, aqueous buffer, pH 7 or lower, 12 hours, read-out: equilibrium solubility in purified water): ≤ 38.2 µg/mL
solubility thermodynamic at 24 h ([2]; pH 7, aqueous buffer, pH 7 or lower, 24 hours, read-out: equilibrium solubility in purified water): ≤ 39.7 µg/mL
solubility thermodynamic at 12 h ([2]; pH 8, aqueous buffer, pH 8, 12 hours, read-out: Equilibrium Solubility): 254 µg/mL (≈ 781 µM)
solubility thermodynamic at 24 h ([2]; pH 8, aqueous buffer, pH 8, 24 hours, read-out: Equilibrium Solubility): 252 µg/mL (≈ 773 µM)
solubility thermodynamic at 12 h ([2]; pH 9, aqueous buffer, pH 9, 12 hours, read-out: Equilibrium Solubility): 1210 µg/mL (≈ 3720 µM)
solubility thermodynamic at 24 h ([2]; pH 9, aqueous buffer, pH 9, 24 hours, read-out: Equilibrium Solubility): 1230 µg/mL (≈ 3780 µM)
solubility thermodynamic at 12 h ([2]; pH 10, aqueous buffer, pH 10, 12 hours, read-out: Equilibrium Solubility): 685 µg/mL (≈ 2110 µM)
solubility thermodynamic at 24 h ([2]; pH 10, aqueous buffer, pH 10, 24 hours, read-out: Equilibrium Solubility): 678 µg/mL (≈ 2080 µM)
solubility thermodynamic at 12 h ([2]; pH 11, aqueous buffer, pH 11, 12 hours, read-out: Equilibrium Solubility): 662 µg/mL (≈ 2040 µM)
solubility thermodynamic at 24 h ([2]; pH 11, aqueous buffer, pH 11, 24 hours, read-out: Equilibrium Solubility): 718 µg/mL (≈ 2210 µM)
solubility thermodynamic at 12 h ([2]; pH 12, aqueous buffer, pH 12, 12 hours, read-out: Equilibrium Solubility): 1220 µg/mL (≈ 3770 µM)
solubility thermodynamic at 24 h ([2]; pH 12, aqueous buffer, pH 12, 24 hours, read-out: Equilibrium Solubility): 1220 µg/mL (≈ 3760 µM)
Structure (SMILES): O=C(O)c1cc(NCCc2ccc(C(F)(F)F)cc2)ccc1O [crisdesalazine, 2-hydroxy-5-[2-(4-trifluoromethylphenyl)ethylamino]benzoic acid]
